In US20240262832A1, “SMALL MOLECULE MODULATORS OF GLUCOCEREBROSIDASE ACTIVITY AND USES THEREOF” (Vanqua Bio, Inc., priority 2021, published 2024) one finds EC50 data, which are given here for 22 compounds.

Structures are written as SMILES. Bounds are passed on as bounds.

Broadly, the EC50 is the concentration at which the effect is half-maximal. A low value points to higher potency in that assay.

The assay addresses T1, GCase (Homo sapiens, UniProt P04062).
T1 construct: endogenous in cells; host or cells: HeLa cells
T1 sequence (P04062 40-536): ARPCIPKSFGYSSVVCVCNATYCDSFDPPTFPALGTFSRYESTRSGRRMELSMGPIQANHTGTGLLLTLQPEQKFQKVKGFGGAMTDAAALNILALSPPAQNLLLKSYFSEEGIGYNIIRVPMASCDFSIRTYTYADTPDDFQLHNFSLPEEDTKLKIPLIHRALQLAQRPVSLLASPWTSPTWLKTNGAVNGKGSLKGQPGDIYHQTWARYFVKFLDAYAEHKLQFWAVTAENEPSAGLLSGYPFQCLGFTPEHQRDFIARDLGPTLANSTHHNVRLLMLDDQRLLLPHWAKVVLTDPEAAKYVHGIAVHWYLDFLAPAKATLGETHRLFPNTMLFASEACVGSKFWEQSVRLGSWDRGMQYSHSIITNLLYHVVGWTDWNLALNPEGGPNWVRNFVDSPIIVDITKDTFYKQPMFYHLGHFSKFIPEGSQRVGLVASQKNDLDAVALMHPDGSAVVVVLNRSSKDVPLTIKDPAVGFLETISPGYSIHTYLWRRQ
Briefly: activation of GCase in a live cell PFB assay in HELA cells. In kind it is cell-based.
`O=C(Cc1ccnn(-c2ccccc2)c1=O)N1CCCC(COc2ccccc2)C1` (stereo not shown) [Compound 44, 4-(2-Oxo-2-(3-(phenoxymethyl)piperidin-1-yl)ethyl)-2-phenylpyridazin-3(2H)-one]: the EC50 was > 100 µM. Under `C[C@H](Oc1cccnc1C(F)(F)F)[C@H]1CCCN(c2cncc(-c3nncs3)n2)C1` [Compound 45a, 2-(6-((S)-3-((S)-1-((2-(Trifluoromethyl)pyridin-3-yl)oxy)ethyl)piperidin-1-yl)pyrazin-2-yl)-1,3,4-thiadiazole] stands < 10 µM; under `C[C@@H](Oc1cccnc1C(F)(F)F)[C@H]1CCCN(c2cncc(-c3nncs3)n2)C1` [Compound 45b, 2-(6-((S)-3-((R)-1-((2-(trifluoromethyl)pyridin-3-yl)oxy)ethyl)piperidin-1-yl)pyrazin-2-yl)-1,3,4-thiadiazole], < 10 µM.

Compound `O=C(N1CCCC(COc2ccccc2)C1)C1(c2nnc(-c3ccccc3)o2)CCOCC1` (stereo not shown) [Compound 46, (3-(Phenoxymethyl)piperidin-1-yl)(4-(5-phenyl-1,3,4-oxadiazol-2-yl)tetrahydro-2H-pyran-4-yl)methanone] came in with an EC50 of 10 to 50 µM.

Take `C[C@@H]1C[C@H](COc2cccnc2C(F)(F)F)CN(c2cnc3cnn(CC(F)F)c3n2)C1` [Compound 47a, 1-(2,2-Difluoroethyl)-6-((3R,5S)-3-methyl-5-(((2-(trifluoromethyl)pyridin-3-yl)oxy)methyl)piperidin-1-yl)-1H-pyrazolo[3,4-b]pyrazine]: the EC50 was < 10 µM. The figure for `CC1CCN(c2cnc3cnn(CC(F)F)c3n2)CC1COc1cccnc1C(F)(F)F` (stereo not shown) [Compound 48, 1-(2,2-Difluoroethyl)-6-(4-methyl-3-(((2-(trifluoromethyl)pyridin-3-yl)oxy)methyl)piperidin-1-yl)-1H-pyrazolo[3,4-b]pyrazine] is < 10 µM; for `C[C@@H]1CCN(c2cnc3cnn(CC(F)F)c3n2)C[C@@H]1COc1cccnc1C(F)(F)F` [Compound 48a, 1-(2,2-Difluoroethyl)-6-((3R,4R)-4-methyl-3-(((2-(trifluoromethyl)pyridin-3-yl)oxy)methyl)piperidin-1-yl)-1H-pyrazolo[3,4-b]pyrazine] it is > 100 µM; for `C[C@H]1CCN(c2cnc3cnn(CC(F)F)c3n2)C[C@H]1COc1cccnc1C(F)(F)F` [Compound 48b, 1-(2,2-difluoroethyl)-6-((3S,4S)-4-methyl-3-(((2-(trifluoromethyl)pyridin-3-yl)oxy)methyl)piperidin-1-yl)-1H-pyrazolo[3,4-b]pyrazine] it is > 100 µM. Under `C[C@H]1CCN(c2cnc3cnn(CC(F)F)c3n2)C[C@@H]1COc1cccnc1C(F)(F)F` [Compound 48c, 1-(2,2-difluoroethyl)-6-((3R,4S)-4-methyl-3-(((2-(trifluoromethyl)pyridin-3-yl)oxy)methyl)piperidin-1-yl)-1H-pyrazolo[3,4-b]pyrazine] stands 10 to 50 µM; under `C[C@@H]1CCN(c2cnc3cnn(CC(F)F)c3n2)C[C@H]1COc1cccnc1C(F)(F)F` [Compound 48d, 1-(2,2-difluoroethyl)-6-((3S,4R)-4-methyl-3-(((2-(trifluoromethyl)pyridin-3-yl)oxy)methyl)piperidin-1-yl)-1H-pyrazolo[3,4-b]pyrazine], 10 to 50 µM; under `Cc1ccccc1OCC1CCCN(C(=O)c2cnc3cc(-c4ccccc4)n(C)c3n2)C1` (stereo not shown) [Compound 49, (5-methyl-6-phenyl-5H-pyrrolo[2,3-b]pyrazin-3-yl)(3-((o-tolyloxy)methyl)piperidin-1-yl)methanone], 10 to 50 µM. For `Cn1c(-c2ccccc2)cc2ncc(C(=O)N3CCCC(COc4cccnc4C(F)(F)F)C3)nc21` (stereo not shown) [Compound 50, (5-Methyl-6-phenyl-5H-pyrrolo[2,3-b]pyrazin-3-yl)(3-(((2-(trifluoromethyl)pyridin-3-yl)oxy)methyl)piperidin-1-yl)methanone], the EC50 fell in the range of 10 to 50 µM. Under `O=C(c1nnc(C(F)(F)c2ccccc2)o1)N1CCCC(COc2ccccc2)C1` (stereo not shown) [Compound 51, (5-(Difluoro(phenyl)methyl)-1,3,4-oxadiazol-2-yl)(3-(phenoxymethyl)piperidin-1-yl)methanone] stands > 100 µM; under `Cc1ccccc1OCC1CCCN(C(=O)c2cnc3c(cc(-c4ccccc4)n3C)n2)C1` (stereo not shown) [Compound 52, (5-methyl-6-phenyl-5H-pyrrolo[2,3-b]pyrazin-2-yl)(3-((o-tolyloxy)methyl)piperidin-1-yl)methanone], 10 to 50 µM.

As to `Cn1c(-c2ccc(F)cc2)cc2ncc(C(=O)N3CCCC(COc4cccnc4C(F)(F)F)C3)nc21` (stereo not shown) [Compound 58, (6-(4-fluorophenyl)-5-methyl-5H-pyrrolo[2,3-b]pyrazin-3-yl)(3-(((2-(trifluoromethyl)pyridin-3-yl)oxy)methyl)piperidin-1-yl)methanone], the EC50 was in the range of 10 to 50 µM. Regarding `FC(F)Cn1ncc2ncc(N3CCCC(COc4cccnc4Cl)C3)nc21` (stereo not shown) [Compound 59, 2-Chloro-3-({1-[1-(2,2-difluoroethyl)pyrazolo[3,4-b]pyrazin-6-yl]piperidin-3-yl}methoxy) pyridine], the EC50 is < 10 µM. Under `FC(F)(F)c1cccc(OC[C@@H]2[C@H]3CN(c4cncc(-c5nncs5)n4)C[C@@H]23)n1` [Compound 60, (1R,5S,6S)-3-[6-(1,3,4-thiadiazol-2-yl)pyrazin-2-yl]-6-({[6-(trifluoromethyl)pyridin-2-yl]oxy}methyl)-3-azabicyclo[3.1.0]hexane] stands < 10 µM; under `FC(F)Cn1ncc2ncc(N3C[C@@H]4[C@@H](COc5ccc(C(F)(F)F)cn5)[C@@H]4C3)nc21` [Compound 61, (1R,5S,6S)-3-[1-(2,2-difluoroethyl)-1H-pyrazolo[3,4-b]pyrazin-6-yl]-6-({[5-(trifluoromethyl)pyridin-2-yl]oxy}methyl)-3-azabicyclo[3.1.0]hexane], 10 to 50 µM; under `FC(F)Cn1ncc2ncc(N3C[C@@H]4[C@@H](COc5cncc(C(F)(F)F)c5)[C@@H]4C3)nc21` [Compound 62, (1R,5S,6S)-3-[1-(2,2-difluoroethyl)-1H-pyrazolo[3,4-b]pyrazin-6-yl]-6-({[5-(trifluoromethyl)pyridin-3-yl]oxy}methyl)-3-azabicyclo[3.1.0]hexane], 10 to 50 µM. Regarding `FC(F)Cn1ncc2ncc(N3C[C@@H]4[C@@H](COc5ccc(C(F)(F)F)nc5)[C@@H]4C3)nc21` [Compound 63, (1R,5S,6S)-3-[1-(2,2-difluoroethyl)-1H-pyrazolo[3,4-b]pyrazin-6-yl]-6-({[6-(trifluoromethyl)pyridin-3-yl]oxy}methyl)-3-azabicyclo[3.1.0]hexane], the EC50 lay within 10 to 50 µM. Under `FC(F)(F)c1cccc(OCC2CN(c3cncc(-c4nncs4)n3)CCC2(F)F)n1` (stereo not shown) [Compound 64, 2-[4,4-Difluoro-3-({[6-(trifluoromethyl)pyridin-2-yl]oxy}methyl)piperidin-1-yl]-6-(1,3,4-thiadiazol-2-yl)pyrazine] stands 10 to 50 µM; under `FC1(COc2cccc(C(F)(F)F)n2)CCCN(c2cncc(-c3nncs3)n2)C1` (stereo not shown) [Compound 65, 2-[3-Fluoro-3-({[6-(trifluoromethyl)pyridin-2-yl]oxy}methyl)piperidin-1-yl]-6-(1,3,4-thiadiazol-2-yl)pyrazine], < 10 µM.
